# Measurements published in patent US11298412B2, “Sphingoid compounds for prophylaxis and/or therapy of coronaviridae infection” (priority 2020, dated 2022).
# Entries after “also recorded” stand apart in the source; their conditions may differ.
# Key:
# pp-VSV-SARS-CoV-2 spike [1] = type: cell-based
# [2] = tested on: rhinovirus strain RV2 (minor strain); experiment: Rhinovirus RV2 infection of Hela cells, Trypan Blue cell death; type: cell-based; details: 10 μM and 20 μM, added 10 min before or 60 min or 240 min after infection, 4 days
# [3] = target: pp-VSV-SARS-CoV-2 / recombinant ACE2 (Homo sapiens, UniProt Q9BYF1); experiment: Binding of pp-VSV-SARS-CoV-2 to immobilized recombinant ACE2, Vero infection with supernatant; details: 1 or 2 μM sphingosine; immobilized Fc-ACE2
# Hela cells = experiment: Effect of sphingosine alone on Hela cells, Trypan Blue cell death; details: uninfected Hela cells; 10 μM or 20 μM
# [4] = Surface sphingosine in mouse nasal mucosa after intranasal application, in situ sphingosine kinase assay; type: in vivo; details: wild-type mice; 10 μL of 10 μM or 100 μM into the nostrils; 1, 4 and 8 hrs; without washing
# Description: Sphingosine (SPH) was applied into the nose of wild-type mice and the concentration of sphingosine on the epithelial cell surface was determined after 1, 4 and 8 hrs (a.i.: after injection of sphingosine). To this end, 10 μL of a 10 μM or a 100 μM sphingosine solution was applied into the nostrils of wild-type mice. Controls received the solvent, i.e. octylglucopyranoside at the same concentration used when sphingosine was applied, or were left untreated. Mice were slightly and very briefly anesthetized with ether. For the intranasal application we used a blunt-end 30 g needle that was covered with a thin plastic film. The blunt-ended needle was inserted into the nostrils approximately 2 mm. Mice were sacrificed after the indicated time, the nasal bone was removed, placed on a 30° C. pre-warmed plastic plate and an area of 2 mm×2 mm was immediately incubated with 0.001 units of sphingosine kinase 1 (#6068-SK-010, R&D) in 4 μl of 150 mM sodium acetate (pH 7.4), 1 μM ATP, and 10 μCi [^32P]γATP/sample. Controls were incubated with the same buffer without sphingosine kinase or were left untreated. […] The TLC plates were analyzed with a phosphoimager. Surface sphingosine levels were determined with a standard curve of C18-sphingosine. […]
# [5] = tested on: epithelial cells of the nose; experiment: Toxicity of intranasal sphingosine on nasal epithelial cells of mice, Trypan Blue; type: in vivo; details: wild-type mice; 10 μL of 10 μM or 100 μM intranasal; 8 hours or 24 hours
# Description: Sphingosine was applied into the nose of wild-type mice as in 3.2. 10 μL of a 10 μM or a 100 μM sphingosine (SPH) solution was administered into the nostrils of wild-type mice. Controls received the solvent, i.e. octylglucopyranoside at the same concentration used when sphingosine was applied, or were left untreated. Mice were anesthetized prior to application of sphingosine. Mice were sacrificed after 8 hours or 24 hours, the nasal bone was removed and incubated in Trypsin solution for 10 min to release and isolate epithelial cells. Cells were washed twice in H/S (20 mM HEPES, 132 mM NaCl, 5 mM KCl, 1 mM CaCl2), 0.7 mM MgCl2, 0.8 mM MgSO4, pH 7.4), stained with Trypan Blue (0.2% final concentration) and dead cells were counted in aliquots of 500 cells. Given is the percentage of dead cells±SD from 4 independent experiments each; *p<0.05, ANOVA.
# pp-VSV-SARS-CoV-2 = experiment: Adhesion of pp-VSV-SARS-CoV-2 on Vero cells, flow cytometry with anti-spike S1; type: cell-based; details: 20 minutes infection in presence of lipid
# [6] = tested on: rhinovirus strain 2 (RV2); experiment: Intranasal RV2 infection of wild-type mice, Hela cell death bioassay of nasal bone; type: in vivo; details: 10 μL of 100 μM intranasal 10 min before or 1, 4, 8 hrs after infection, 10^3 PFU, sacrificed after 24 hrs
# Description: Mice were infected with 10^3 PFU rhinovirus strain 2 (RV2) in 10 μL PBS. The virus was applied directly into the nose using a blunt ended, plastic coated 30 g needle, that was inserted into the nose approximately 2 mm. Sphingosine (SPH) was applied into the nose of the wild-type mice at a concentration of 100 μM solution in PBS in a volume of 10 μL. Sphingosine was applied either 10 min prior to rhinovirus infection (b.i.) or 1 hr, 4 hrs and 8 hrs after the infection (a.i.). Controls received the solvent, i.e. octylglucopyranoside (OGP) at the same concentration than used when sphingosine was applied, or were left untreated, but infected. Solutions were applied as in 3.2. Mice were sacrificed after 24 hrs, the nasal bone was removed and incubated for 4 days with Hela cells in a 24 well plate. If the nasal epithelial cells are infected, rhinovirus will be released due to the cytopathic effect of the virus and the in vivo infection can then be determined and quantified by measuring cell death of Hela cells as a bioassay. To this end, dead cells were collected, adherent cells were trypsinized, the fractions were combined, washed twice in H/S (20 mM HEPES, 132 mM NaCl, 5 mM KCl, 1 mM CaCl2), 0.7 mM MgCl2, 0.8 mM MgSO4, pH 7.4), stained with Trypan Blue (0.2% final concentration) and dead cells were counted in aliquots of 500 cells as above. […]
# pp-VSV-SARS-CoV-2 spike [7] = type: cell-based; remark: listed apart in the source
# [8] = target: T1, receptor-binding domain of spike protein / ACE2 (Homo sapiens, UniProt Q9BYF1); experiment: Binding of Fc-ACE2 to RBD-spike immobilized on Ni-agarose, western blot; details: RBD immobilized on Ni2+-agarose; Fc-ACE2 with 1 μM or 2 μM sphingosine
# T1 construct: purchased Abcam (Fc-ACE2); Sino Biologicals (RBD-spike) ab273687 (Fc-ACE2); MA FE2702B, #40150-R007 (as printed for RBD-spike)
# [9] = tested on: human nasal epithelial cells; experiment: Toxicity on human nasal epithelial cells; details: as per the Vero cell studies
# Chain of pp-VSV-SARS-CoV-2 / recombinant ACE2 (Q9BYF1 18-740): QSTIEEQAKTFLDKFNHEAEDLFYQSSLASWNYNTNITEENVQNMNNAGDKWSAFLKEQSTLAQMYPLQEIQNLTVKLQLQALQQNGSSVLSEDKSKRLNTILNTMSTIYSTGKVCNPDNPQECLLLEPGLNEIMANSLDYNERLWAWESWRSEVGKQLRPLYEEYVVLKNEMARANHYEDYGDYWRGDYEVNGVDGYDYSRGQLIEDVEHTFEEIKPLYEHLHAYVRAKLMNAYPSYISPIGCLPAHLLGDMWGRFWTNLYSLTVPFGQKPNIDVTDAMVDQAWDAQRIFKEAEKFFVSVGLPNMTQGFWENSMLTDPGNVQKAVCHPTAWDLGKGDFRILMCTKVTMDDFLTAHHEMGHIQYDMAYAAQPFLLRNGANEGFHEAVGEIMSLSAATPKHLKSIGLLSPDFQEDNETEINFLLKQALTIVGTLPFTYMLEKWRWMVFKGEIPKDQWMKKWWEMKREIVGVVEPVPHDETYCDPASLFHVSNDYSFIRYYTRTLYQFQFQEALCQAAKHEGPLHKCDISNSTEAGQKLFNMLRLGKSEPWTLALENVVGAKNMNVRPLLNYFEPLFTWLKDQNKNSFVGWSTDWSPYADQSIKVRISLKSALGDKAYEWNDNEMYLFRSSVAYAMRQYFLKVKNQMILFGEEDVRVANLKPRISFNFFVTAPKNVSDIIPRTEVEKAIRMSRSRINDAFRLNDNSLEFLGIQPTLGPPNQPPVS
# T1 sequence (Q9BYF1 18-740): as above
structure (smiles),measurement,setting,value
"CCCCCCCCCCCCC/C=C/[C@@H](O)[C@@H](N)CO [sphingosine, (2S,3R,4E)-2-amino-4-octadecene-1,3-diol]",infection of human nasal epithelial cells with pp-VSV-SARS-CoV-2 spike (eGFP positive cells),pp-VSV-SARS-CoV-2 spike [1],prevented infection; also recorded: prevents infection of freshly isolated human nasal endothelial cells by SARS-CoV-2
same,infection with RV2 (percentage of dead cells),[2],prevented the infection; also recorded: prevention of RSV2 and RSV14 infection
same,binding of intact pp-VSV-SARS-CoV-2 to recombinant ACE2,[3],abrogated binding of intact pp-VSV-SARS-CoV-2 to recombinant ACE2; also recorded: prevents binding of SARS-CoV-2 spike protein to the ACE2 receptor
same,effect of sphingosine itself on the cells (percentage of dead cells),Hela cells,no effect on the cells
same,sphingosine concentration on the nasal epithelial cell surface / in the mucosa,[4],dose-dependent accumulation of sphingosine in the mucosa; also recorded: dose dependent increase in the local sphingosine concentration in the nasal mucosa
same,toxic effects on nasal epithelial cells (percentage of dead cells),[5],no toxic effects on epithelial cells of the nose; also recorded: no toxic side effects
same,binding of pp-VSV-SARS-CoV-2 to the cell surface,pp-VSV-SARS-CoV-2,prevented binding of pp-VSV-SARS-CoV-2 to the cell surface
same,infection with RV2 in vivo (percentage of dead Hela cells),[6],prevented; also recorded: prevents infection by RSV2
same,effect on infection of Vero epithelial cells with pp-VSV-SARS-CoV-2,pp-VSV-SARS-CoV-2 spike [7],marked effect
same,infection of Vero cells by SARS-CoV-2,pp-VSV-SARS-CoV-2 spike [7],prevents infection of Vero cells by SARS-CoV-2
same,reduction of the infection of Vero epithelial cells with pp-VSV-SARS-CoV-2,pp-VSV-SARS-CoV-2 spike [7],more than 90%
same,interaction of the receptor-binding domain of spike protein with ACE2,[8],abolished the interaction of the receptor-binding domain of spike protein with ACE2
same,toxic effects on nasal epithelial cells,[9],no toxic effects on nasal epithelial cells; also recorded: without negative effects on the cells
